From patent publication US12616672B2, “Methods for assessing risk of cardiovascular disease and methods and compounds for use in treating or preventing cardiovascular disease” (Queen Mary University of London, priority 2017, dated 2026) come the findings set out here.

For experiment [1], the system named is peripheral blood leukocytes and platelets from CVD patients. The experiment can be described thus: CVD patient whole blood incubated with RvD2n-3 DPA or RvD5n-3 DPA then PAF, flow cytometry. Format: cell-based, human. On the technique in general: A flow cytometer gives signals particle by particle.
Experiment [2] relates to healthy volunteer peripheral blood neutrophils, monocytes and platelets. The experiment can be described thus: Healthy volunteer whole blood incubated with RvDn-3 DPA then PAF, flow cytometry of activation markers. Format: cell-based, human. The note with it: 0.1, 1, 10 nM, 15 min then PAF 30 min. Here is the method:
Blood was collected from healthy volunteers and incubated with RvD2n-3 DPA, RvD5n-3 DPA (0.1 nM, 1 nM or 10 nM) or vehicle (PBS) for 15 min (37° C.) then with PAF (100 ng/ml; 30 min; 37° C.). Cell activation and leukocyte-platelet aggregates were assessed using flow cytometry. (A,B) Representative histograms depicting neutrophil (A) CD11b and (B) CD62P expression. (C,D) Cumulative neutrophil ([…]) CD11b and (D) CD62P expression. (E,F) Monocyte (E) CD11b and (F) CD62P expression. Results are mean of n=5 per time point and expressed as percentage change from PAF incubated cells. *p<0.05 compared to PAF using one-sample t test, followed by Sidak correction of p values.
Blood was collected from healthy volunteers and incubated with RvD2n-3 DPA, RvD5n-3 DPA (0.1 nM, 1 nM or 10 nM) or vehicle (PBS) for 15 min (37° C.) then with PAF (100 ng/ml; 30 min; 37° C.). Cell activation and leukocyte-platelet aggregates were assessed using flow cytometry. (A,B) Images depicting platelet monocyte (A) and (B) platelet-neutrophil aggregates. Results are representative of n=3 distinct experiments. (C,D) Cumulative neutrophil (C) CD11b and (D) CD62P expression. (E,F) Monocyte (E) CD11b and (F) CD62P expression. Results are mean of n=5 per condition and expressed as percentage change from PAF incubated cells. *p<0.05 compared to PAF using Wilcoxon Signed Rank Test. (G) Platelet rich plasma was incubated with vehicle (PBS) or RvD5n-3 DPA 0.1-10 nM (15 min; 37° C.) and PAF (100 nM; 30 min; 37° C.). Adhesion molecule expression evaluated using flow cytometry. Results are mean±s.e.m. n=5 healthy volunteers. * p, 0.05 compared to Vehicle group using Friedman's test followed by Dunn's multiple comparisons test.
(§1) After stimulation, samples were washed twice with PBS for 12 min at 800×g. Samples were stained for flow cytometry as described below.
(§2) Whole blood was incubated with lineage-specific markers for 45 min (4° C., in DPBS containing 0.02% BSA). The following anti-human antibodies were used: VioBlue-anti-CD41, PE-Cy5-anti-CD62P, Brilliant Violet 711-anti-CD11b, APC-Cy7-anti-CD16, Alexa Fluor 647-anti-CD14. After staining, red blood cells were lysed using Whole Blood Lysing Reagent Kit, according to the manufacturer's instructions. Data was collected using a flow cytometer and analysis was conducted using appropriate software.

Experiment [3] has as its system Apo E^−/− mice. As to the kind of experiment: Apo E−/− mice on western diet given RvD5n-3 DPA: blood leukocyte and platelet activation by flow cytometry. Format: in vivo. The note with it: 100 ng/mouse i.v., alternate days, 2 weeks; vs vehicle. Here is the method:
(§3) Mice (male and female) were fed a western diet for 6 weeks from 4 weeks of age and kept of a 12 h light dark cycle. At 8 weeks of age, mice were given RvD5n-3 DPA (100 ng/mouse; i.v.) or vehicle on alternate days for a 2-week period. Mice were culled, aortic arches were collected and stained using oil-red O as in Khambata R S et al. Anti-inflammatory actions of inorganic nitrate stabilize the atherosclerotic plaque. Proc Natt Acad Sci USA. 2017; 114(4):E550-E559, the contents of which are incorporated herein by reference. Staining intensity was determined using image processing software and expressed as relative units per mm^2. The descending aorta was collected, placed in ice-cold methanol and lipid mediators identified and quantified as described above.
In separate experiments blood was collected from Apo E^−/− mice using heparin-lined syringes via cardiac puncture. Cells were incubated with Fc-blocking IgG and anti-mouse CD11b-PE-Texas Red, CD62P-Brilliant Violet650™, CD115-Brilliant Violet 711™, and CD41-Brilliant Violet 510™ (Biolegend). for 45 minutes on ice. Red blood cells were lysed and fixed using Whole Blood Lysing Reagent Kit. Staining was then evaluated using a flow cytometer and analysis was conducted using appropriate software.

Experiment [4] concerns Apo E^−/− mice. As to the kind of experiment: Apo E−/− mice given RvD5n-3 DPA: aortic arch Oil red-O staining. The experiment is classed as in vivo. The following applies: 100 ng/mouse i.v., alternate days, 2 weeks; vs vehicle. Here is the method: as §3
Experiment [5] relates to peripheral blood leukocytes and platelets from CVD patients. As to the kind of experiment: CVD patient whole blood incubated with RvD2n-3 DPA or RvD5n-3 DPA then PAF, flow cytometry. The experiment is classed as cell-based, human. The following applies: 15 min then PAF 30 min. Here is the method:
Whole blood was incubated with RvD2n-3 DPA or RvD5n-3 DPA (0.1 nM, 1 nM or 10 nM) or vehicle (PBS containing 0.01% EtOH) for 15 min then with PAF (100 ng/ml) for 30 min (37° C.). Expression of CD62P on (A) neutrophils (B) monocytes and CD11b on (C) neutrophils and (D) monocytes was investigated using flow cytometry and fluorescently labelled antibodies. Results are mean±s.em. and expressed as percentage of PAF incubated cells. n=9 patients per interval. * p<0.05 vs Veh group using one-sample t test, followed by Sidak correction of p values.
Whole blood was incubated with RvD2n-3 DPA or RvD5n-3 DPA (0.1 nM, 1 nM or 10 nM) or vehicle (PBS containing 0.01% EtOH) for 15 min then with PAF (100 ng/ml) for 30 min (37° C.). Expression of CD62P on (A) neutrophils (B) monocytes and CD11b on (C) neutrophils and (D) monocytes was investigated using flow cytometry and fluorescently labeled antibodies. Results are mean±s.em. and expressed as percentage of PAF incubated cells. n=9 patients per group. * p<0.05 vs PAF group using Wilcoxon Signed Rank Test.
as §1, §2

The test system is the same in experiment [6]. As to the kind of experiment: CVD patient whole blood incubated with RvD2n-3 DPA or RvD5n-3 DPA for 45 min, flow cytometry. The experiment is classed as cell-based, human. The note with it: no PAF. The procedure: FIG. 8: RvD2n-3 DPA and RvD5n-3 DPA reduce leukocyte activation in peripheral blood from CVD patients. Peripheral blood from patients diagnosed with cardiovascular disease (CVD) was collected at 9:00 h. […] Expression of CD62P on (A) neutrophils (B) monocytes and CD11b on (C) neutrophils and (D) monocytes was investigated using flow cytometry and fluorescently labelled antibodies.
as §2
In select experiments platelet adhesion molecule expression was assessed. Here platelets were incubated with fluorescently labelled mouse anti-human VioBlue-anti-CD41, PE-Cy5-anti-CD62P, PerCP/Cy5.5-anti-CD63 and FITC-ant-CD42b for 30 min at 4° C. Cells were then washed and fluorescence, staining evaluated using LSRFortessa cell analyser (BD Biosciences) and analysed using FlowJo software (Tree Star Inc., V10).

Setting [7] is: CVD patient whole blood, 0.1, 1, 10 nM, 45 min.
Setting [8] is: CVD patient whole blood, 45 min.

Consider `CC/C=C\C[C@H](O)/C=C/C=C\C/C=C\C=C\[C@@H](O)CCCCCC(=O)O` [RvD5n-3 DPA, 7,17-trihydroxy-8E,10,13,15E,19Z-docosapentaenoic acid], for which, in experiment [1], the “expression of CD62P on peripheral blood platelets” value is “dose-dependently regulated” and the “expression of CD63 on peripheral blood platelets” value is reported as “dose-dependently regulated”. The leukocyte-platelet aggregates result in experiment [2] is on record as “dose-dependent decreases”. Further, in experiment [2] (vs PAF alone), the “monocyte expression of CD11b” value is listed as “dose-dependent decreases” and the “neutrophil CD11b expression” value is given as “dose-dependent decreases”. Also, in the experiment with Apo E^−/− mice [3], the “circulating platelet-monocyte aggregates (CD41 and CD62P expression on CD115 positive cells)” value was “reduced”; the “monocyte activation, CD11b expression” value was “decrease”; the “platelet-neutrophil aggregates and neutrophil activation” value is on record as “significant reduction”; the “reduction in neutrophil CD11b expression” value is more than 60%. Moreover, the “aortic lesions (Oil red-O staining)” value in the experiment on Apo E^−/− mice [4] is “significant reduction”. Further, in experiment [5], the “expression of CD11b on monocytes” value was “decreased”; the “expression of CD11b on neutrophils” value is “decreased”; the “platelet-monocyte aggregates measured as CD62P and CD41 expression” value was “decreases”; the “platelet-neutrophil aggregates measured as CD62P and CD41 expression” value is on record as “decreases”. For the same molecule, in experiment [6] (setting [7]), the “monocyte CD11b expression” value is on record as “significantly reduced”, the “neutrophil CD11b expression” value is reported as “significantly reduced”, the platelet-monocyte aggregates result was “reduction” and the platelet-neutrophil aggregates result is on record as “reduction”. In experiment [6] (setting [8]), the “platelet CD62P expression” value is recorded as “downregulated” and the “platelet CD63 expression” value is “downregulated”. For the same molecule, the “potency in reducing neutrophil-platelet and monocyte-platelet aggregates, compared” value in experiment [6] (CVD patient whole blood) is given as “higher potency than RvD2n-3 DPA”.
